According to patent US20190284129A1, “LIPID COMPOUNDS AND COMPOSITIONS AND THEIR OPTHALMIC USE” (BIOZEP AS, priority 2015, published 2019):

Assays:
Assay type in all cases: cell-based
neuroblastoma cells = experiment: mitochondrial DNA damage in neuroblastoma cells (RT-qPCR, TaqI cleavage); details: 10 μM compound, 24 hours, high glucose (20 mM); FIG. 3
Method: In this study, neuroblastoma cells were cultivated at near confluency (50-75%) in DMEM/F12/10% serum high glucose (20 mM) supplied with 10 μM BIZ-101 or BIZ-105 for 24 hours prior to analyses. These conditions readily induce mtDNA damage that is representative of that accumulating during aging as the result of age-associated oxidative stress.
For DNA damage analyses, cells were washed, and DNA isolated using Qiagen Blood&Tissue DNA isolation kit. DNA damage level was analyzed by a RT-qPCR method based on the ability of DNA lesions to inhibit restriction enzyme cleavage, as described previously (http://www.ncbi.nlm.nih.gov/pubmed/25631007) using primers 5′-[…]-3′ and 5′-[…]-3′ (sense and anti sense, respectively). Briefly, genomic DNA (6 ng) was treated with 1 U TaqI for 15 min at 65° C. DNA damage frequency was calculated as 2exp−(ctTaql−ctnt), where ctTaql and ctnt represent CT values of TaqI-treated and non-treated genomic DNA, respectively.

NF-κB pathway = experiment: NF-κB luciferase reporter assay in NF-κB Reporter-HEK293 cells, TNFa stimulated; details: FIG. 5
Excerpt: The NF-κB reporter (luc)-HEK293 cell line is designed for monitoring the nuclear factor Kappa B (NF-κB) signal transduction pathways. It contains a firefly luciferase gene driven by four copies of NF-κB response element located upstream of the minimal TATA promoter. After activation by pro-inflammatory cytokines or stimulants of lymphokine receptors, endogenous NF-κB transcription factors bind to the DNA response elements, inducing transcription of the luciferase reporter gene.
NF-κB Reporter-HEK293 cells were cultured in MEM medium with 10% FBS, 1% non-essential amino acids, 1 mM Na-pyruvate, 1% Penn-strep, and 100 µg/ml of Hygromycin B.
To perform the NF-κB luciferase reporter assay, NF-κB Reporter-HEK293 cells were seeded at 40,000 cells per well into white clear-bottom 96-well microplate in 45 μl of growth medium without Hygromycin B. Cells were incubated at 37° C. and 5% CO2 overnight to allow them to recover and reattach. The following day a series of dilutions of compounds were made in assay medium (MEM medium with 0.5% FBS, 1% non-essential amino acids, 1 mM Na-pyruvate, 1% Penn-strep). The medium was removed from the wells and 45 μl of diluted compound was added to the cells. Assay medium with DMSO was added to the untreated control wells and cell-free control wells. The final concentration of DMSO was 0.25%. The cells were incubated overnight at 37° C. in CO2 incubator. […]
After treatment, cells were then lysed and a luciferase assay was performed using the ONE-Step luciferase assay system. […] Luminescence was measured using a luminometer (BioTek Synergy™ 2 microplate reader).
Reporter assays were performed in triplicate at each concentration. The luminescence intensity data were analyzed using the computer software, Graphpad Prism. In the absence of the compound, the luminescence intensity (Lt) in each data set was defined as 100%. In the absence of cells, the luminescence intensity (Lb) in each data set was defined as 0%. The percent luminescence in the presence of each compound was calculated according to the following equation: % Luminescence=(L−Lb)/(Lt−Lb), where L=the luminescence intensity in the presence of the compound, Lb=the luminescence intensity in the absence of cells, and Lt=the luminescence intensity in the absence of the compound. The values of % luminescence versus a series of compound concentrations were then plotted using non-linear regression analysis of a Sigmoidal dose-response curve generated with the equation Y=B+(T B)/1+10^((Log EC50-X)×Hill Slope), where Y=percent luminescence, B=minimum percent luminescence, T=maximum percent luminescence, X=logarithm of compound and Hill Slope=slope factor or Hill coefficient. The IC50 value was determined by the concentration causing a half-maximal percent activity.

ARPE-19 cells = experiment: oxidative stress (tert-butyl hydroperoxide) cytolysis assay in ARPE-19 retinal pigment epithelial cells
Method: In order to evaluate the potential of BIZ-101 to protective the eye from oxidative stress damage the compound was tested in a cell based assay. Oxidative stress was induced in an ARPE-19 cell line using tert-butyl hydroperoxide at different concentrations. The cellular viability was kinetically monitored and measured by analysing the plasma membrane integrity based on the incorporation of a non-permeant and fluorescent DNA intercalating agent that selectively stain cytolytic cells with comprised plasma membranes.
(§1) The ARPE-19 cell line was seeded and cultured in DMEM-F12 medium+10% SVF for 24 hrs in a 96 well plate. Cells were pre-treated or not with either fenofibric acid (25 μM) or compound BIZ-101 (10 μM) during this 24 hr period. After 24 hrs, the different concentrations of t-butyl hydroperoxide were added in the presence of a fluorescent DNA intercalating agent for the following monitoring. Live content time-lapse imaging was performed with a sampling rate of 1 image every 2 hr over a 96 hrs period. The number of fluorescent/cytolytic cells were counted and reported during the experiment. The treatment conditions were tested in one experiment session in a triplicate format.
Fenofibric acid was used at 25 μM and was ordered from Sigma Aldrich. The day of the pre-treatment, a 25 mM stock solution of fenofibric acid was prepared in DMSO and diluted in the complete culture medium at 25 μM. 100 μL of this solution or 100 μL of complete culture medium+0.1% DMSO replaced the 100 μL of the complete culture medium already present in the well. The day of the treatment with t-butyl hydroperoxide, a 2 times concentrated solution of fenofibric acid was freshly diluted in the complete culture medium and 50 μL of this solution or 50 μL of complete culture medium+0.2% DMSO were added to the 100 μL of the culture medium already present in the well.
Compound BIZ-101 was tested at a final concentration of 10 μM. A 10 mM predilution was prepared in DMSO from a 10 mM stock solution. The 10 mM solution of BIZ 101 was diluted in the complete culture medium at 10 μM. 100 μL, of this solution or 100 μL of the complete culture medium+0.1% DMSO replaced the 100 μL, of the complete culture medium already present in the well. The day of the treatment with t-butyl hydroperoxide, a 2 times concentrated solution of BIZ 101 was freshly diluted in the complete culture medium and 50 μL of this solution or 50 μL of complete culture medium+0.2% DMSO were added to the 100 μL of the culture medium already present in the well.
Preparation of the tert-butyl hydroperoxide [tBHP] solution: 0, 0.01 mM, 0.03 mM, 0.1 mM, 0.3 mM, 1 mM, 3 mM and 10 mM. A 4 times concentrated solution of tBHP was freshly diluted in the complete culture medium for each of the concentrations to be tested. 50 μL of the 4 times concentrated solution was added to the 150 μL of the cultured medium.
In order to evaluate the potential of BIZ-102 to protect the eye from oxidative stress damage the compound was tested in a cell based assay similar to Example 24 with the following changes. The oxidative stress in the ARPE-19 cell line was induced by using 3 different concentrations of tBHP: 10 μM, 30 μM and 100 μM and BIZ-102 was tested in 2 different concentrations: 1 μM and 10 μM.
as §1, with “with” for “with either fenofibric acid (25 μM) or”, “BIZ-102 (1 μM and 10” for “BIZ-101 (10”
Compound BIZ-102 was tested at a final concentration of 1 and 10 μM. […]

human PPARα = biological target: T1, human PPARα (Homo sapiens, UniProt Q07869); experiment: stable reporter HeLa cell line, GAL4-PPARα ligand activity; details: 5 μM compound, relative to 1 μM GW7647; FIG. 6
T1 construct: expressed in transfected cells
T1 sequence (Q07869 239-466 limits assumed): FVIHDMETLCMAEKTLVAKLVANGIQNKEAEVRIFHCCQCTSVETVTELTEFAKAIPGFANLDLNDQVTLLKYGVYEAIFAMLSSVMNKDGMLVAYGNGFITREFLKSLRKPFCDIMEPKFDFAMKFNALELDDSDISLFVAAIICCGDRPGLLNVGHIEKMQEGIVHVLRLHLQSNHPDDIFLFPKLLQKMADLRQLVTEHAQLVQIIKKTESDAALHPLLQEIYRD
Excerpt: (§2) To screen the human PPARα, PPARδ and PPARγ ligand activity of the compounds a stable reporter cell line was used (HeLa cell line). The stable reporter cell line express respectively a chimeric protein containing the ligand binding domain (LBD) of human PPARα, human PPARδ and human PPARγ fused to the yeast transactivator GAL4 DNA binding domain (DBD). The luciferase (Luc) reporter gene is driven by a pentamer of the GAL4 recognition sequence in front of a β-globin promoter. The use of GAL4-PPARα, GAL4-PPARδ and GAL4-PPARγ chimeric receptors allows for elimination of background activity from endogenous receptors and quantification of relative activity across the three PPAR subtypes with the same reporter gene. […] Luciferase activity was measured by a luminometer and luciferase activity was expressed as relative light units (RLU).
Day 1: Seed 96—well plate with PPAR cells. Cell appearance was checked using optical microscopy. Cells were cultivated at confluency (80-100%).
Day 2: The test articles dissolved in DMSO were added to the cells. The controls (positive controls and the solvent control) were included in each individual plate. […]
Day 3: To determine the PPAR subtype activity of the tested compounds, the percentage of PPAR ligand activity was calculated for each tested compound as follows: […]

human PPARγ = biological target: T2, human PPARγ (Homo sapiens, UniProt P37231); experiment: stable reporter HeLa cell line, GAL4-PPARγ ligand activity; details: 5 μM compound, relative to 1 μM BRL49653; FIG. 7
T2 construct: expressed in transfected cells
T2 sequence (P37231 238-503 limits assumed): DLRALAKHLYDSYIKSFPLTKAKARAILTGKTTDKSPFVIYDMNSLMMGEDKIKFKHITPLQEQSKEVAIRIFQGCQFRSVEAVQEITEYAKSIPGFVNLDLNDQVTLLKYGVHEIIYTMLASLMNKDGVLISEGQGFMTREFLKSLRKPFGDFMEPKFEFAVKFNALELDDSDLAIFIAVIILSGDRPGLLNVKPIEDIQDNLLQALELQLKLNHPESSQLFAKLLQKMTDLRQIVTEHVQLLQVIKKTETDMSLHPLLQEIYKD
Excerpt: as §2
Day 1: Seed 96—well plate with PPAR cells. Cell appearance was checked using optical microscopy. Cells were cultivated at confluency (80-100%). […]
Day 3: To determine the PPAR subtype activity of the tested compounds, the percentage of PPAR ligand activity was calculated for each tested compound as follows:
Percentage of PPARγ activity for the tested compound in 5 μM concentration=(RLUXcomp×100)/RLUBRL49653 where RLUBRL49653 is the luminescence measured from PPARγ cells incubated with 1 μM […] and expressed as Relative Light Units. […]

CC/C=C\C/C=C\C/C=C\C/C=C\C/C=C\CCC(CC)C(=O)O (stereo not shown) [BIZ-101, 2-ethyleicosa-(all-Z)-5,8,11,14,17-pentaenoic Acid]
mtDNA damage (neuroblastoma cells): reduced mtDNA damage
dose dependence of inhibitory effect on the NF-κB pathway (NF-κB pathway): dose dependent
complete inhibition of the NF-κB pathway (NF-κB pathway; at high concentration): completely inhibited
dose dependent cytotoxicity of tBHP (ARPE-19 cells; 6 hrs after addition of tBHP, 24 hr pre-treatment, fenofibric acid 25 μM, BIZ-101 10 μM): slightly decreased
protective effects against tBHP cytotoxicity (ARPE-19 cells; 24 hrs after addition of t-BHP, fenofibric acid 25 μM, BIZ-101 10 μM): more efficient
protective effect compared with fenofibric acid (ARPE-19 cells; BIZ-101 10 μM vs fenofibric acid 25 μM): much more potent
effect on retinal pigment epithelial cells during conditions of oxidative stress (ARPE-19 cells; overall conclusion): protective effect

CC/C=C\C/C=C\C/C=C\C/C=C\C/C=C\C/C=C\CC(C)C(=O)O (stereo not shown) [BIZ-105, 2-methyldocosa-(all-Z)-4,7,10,13,16,19-hexaenoic Acid]
mtDNA damage (neuroblastoma cells): slightly reduced level of mtDNA damage

CC/C=C\C/C=C\C/C=C\C/C=C\C/C=C\CCOCC(=O)O [BIZ-108, 3-oxa-(6Z,9Z,12Z,15Z,18Z)-heneicosa-(6,9,12,15,18)-pentaenoic Acid]
PPARα activity (human PPARα): all compounds except BIZ-108 had potent activity
PPARγ activation (human PPARγ): activated PPARγ except for the unsubstituted derivative BIZ-108
